{"source": "patent US6423689B1", "about": "“Peptidyl calcium channel blockers” (Warner-Lambert Company, priority 1997, dated 2002)", "key": {"[1]": {"molecular_target": "T1, N-type Ca2+ channels in IMR-32 cells (Homo sapiens, UniProt Q00975)", "T1 construct": "host or cells: IMR-32 cells, differentiated with dibutyryl cAMP and bromodeoxyuridine", "test": "Inhibition of N-type calcium flux in IMR-32 cells (Indo-1 fluorescence, nitrendipine present)", "type": "cell-based", "conditions": "for IC50: IMR-32 cells, 5 μM nitrendipine, K+ depolarization", "in_short": "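With L-type flux blocked by 5 μM nitrendipine, N-type Ca2+ entry was read as the Indo-1 emission ratio (400/490 nm, excitation 350 nm) at 30° C after KCl depolarization.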"}, "[2]": {"molecular_target": "T2, N-type Ca2+ channels in superior cervical ganglion (SCG) neurons (Rattus norvegicus, UniProt Q02294)", "T2 construct": "from tissue", "T2 sequence (Q02294 whole entry)": "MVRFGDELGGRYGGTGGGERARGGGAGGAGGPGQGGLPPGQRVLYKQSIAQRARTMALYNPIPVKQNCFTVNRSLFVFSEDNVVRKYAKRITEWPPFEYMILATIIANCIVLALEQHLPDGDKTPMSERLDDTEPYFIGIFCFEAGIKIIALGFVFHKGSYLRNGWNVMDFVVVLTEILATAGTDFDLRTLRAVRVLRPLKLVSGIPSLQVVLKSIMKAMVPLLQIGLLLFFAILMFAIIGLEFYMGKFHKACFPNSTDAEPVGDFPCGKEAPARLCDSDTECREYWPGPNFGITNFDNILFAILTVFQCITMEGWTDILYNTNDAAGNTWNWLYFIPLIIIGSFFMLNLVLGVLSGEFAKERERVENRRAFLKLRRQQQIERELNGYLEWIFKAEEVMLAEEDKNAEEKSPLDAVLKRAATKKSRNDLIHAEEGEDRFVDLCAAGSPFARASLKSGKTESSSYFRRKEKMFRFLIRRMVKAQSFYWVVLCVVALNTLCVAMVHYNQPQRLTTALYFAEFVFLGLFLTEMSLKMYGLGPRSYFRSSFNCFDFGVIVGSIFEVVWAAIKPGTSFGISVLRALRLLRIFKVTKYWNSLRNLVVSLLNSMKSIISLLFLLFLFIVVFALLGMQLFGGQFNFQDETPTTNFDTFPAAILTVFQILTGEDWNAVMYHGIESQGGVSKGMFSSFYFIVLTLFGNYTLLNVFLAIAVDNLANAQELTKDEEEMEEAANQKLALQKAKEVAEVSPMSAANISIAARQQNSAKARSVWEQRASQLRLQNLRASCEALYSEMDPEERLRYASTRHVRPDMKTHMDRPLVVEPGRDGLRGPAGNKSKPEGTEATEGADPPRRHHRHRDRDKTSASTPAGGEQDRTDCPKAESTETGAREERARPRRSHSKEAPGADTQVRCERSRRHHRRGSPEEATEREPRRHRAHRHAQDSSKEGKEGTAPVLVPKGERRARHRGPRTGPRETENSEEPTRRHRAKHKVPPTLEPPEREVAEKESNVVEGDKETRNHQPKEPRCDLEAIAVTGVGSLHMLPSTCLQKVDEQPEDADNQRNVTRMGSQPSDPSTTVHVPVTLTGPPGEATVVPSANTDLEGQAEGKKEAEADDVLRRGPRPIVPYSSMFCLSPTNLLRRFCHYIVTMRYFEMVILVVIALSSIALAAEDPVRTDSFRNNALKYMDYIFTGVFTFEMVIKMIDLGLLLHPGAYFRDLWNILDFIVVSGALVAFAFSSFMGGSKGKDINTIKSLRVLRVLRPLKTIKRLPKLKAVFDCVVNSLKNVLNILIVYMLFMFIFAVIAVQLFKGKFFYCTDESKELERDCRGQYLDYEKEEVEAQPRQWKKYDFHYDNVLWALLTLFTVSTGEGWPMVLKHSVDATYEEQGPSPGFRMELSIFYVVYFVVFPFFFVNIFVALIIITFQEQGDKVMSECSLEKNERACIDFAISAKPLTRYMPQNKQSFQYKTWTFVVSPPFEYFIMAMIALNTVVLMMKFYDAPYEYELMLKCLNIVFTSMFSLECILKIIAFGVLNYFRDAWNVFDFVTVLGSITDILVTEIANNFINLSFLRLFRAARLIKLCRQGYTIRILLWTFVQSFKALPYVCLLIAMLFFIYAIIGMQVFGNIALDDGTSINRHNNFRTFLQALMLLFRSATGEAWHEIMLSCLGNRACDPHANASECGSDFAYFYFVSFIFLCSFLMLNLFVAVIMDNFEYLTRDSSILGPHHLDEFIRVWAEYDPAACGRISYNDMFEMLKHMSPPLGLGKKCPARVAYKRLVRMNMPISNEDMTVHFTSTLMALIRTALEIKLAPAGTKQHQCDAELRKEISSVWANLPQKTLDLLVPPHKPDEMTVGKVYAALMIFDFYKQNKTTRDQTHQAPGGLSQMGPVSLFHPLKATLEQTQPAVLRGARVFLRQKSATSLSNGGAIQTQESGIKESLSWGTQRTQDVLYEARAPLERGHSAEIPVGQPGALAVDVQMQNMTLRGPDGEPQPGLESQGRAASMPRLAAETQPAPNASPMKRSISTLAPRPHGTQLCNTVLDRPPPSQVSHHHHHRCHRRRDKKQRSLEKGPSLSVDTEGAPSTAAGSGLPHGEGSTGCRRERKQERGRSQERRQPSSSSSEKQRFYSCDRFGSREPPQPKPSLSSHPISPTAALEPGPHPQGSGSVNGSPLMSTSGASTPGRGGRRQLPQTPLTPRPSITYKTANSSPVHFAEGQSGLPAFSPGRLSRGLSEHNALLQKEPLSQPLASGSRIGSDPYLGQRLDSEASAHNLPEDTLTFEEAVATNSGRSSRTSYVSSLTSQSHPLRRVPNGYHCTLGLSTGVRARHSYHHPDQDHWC", "T2 sequence (P54290 25-944 partner limits assumed)": "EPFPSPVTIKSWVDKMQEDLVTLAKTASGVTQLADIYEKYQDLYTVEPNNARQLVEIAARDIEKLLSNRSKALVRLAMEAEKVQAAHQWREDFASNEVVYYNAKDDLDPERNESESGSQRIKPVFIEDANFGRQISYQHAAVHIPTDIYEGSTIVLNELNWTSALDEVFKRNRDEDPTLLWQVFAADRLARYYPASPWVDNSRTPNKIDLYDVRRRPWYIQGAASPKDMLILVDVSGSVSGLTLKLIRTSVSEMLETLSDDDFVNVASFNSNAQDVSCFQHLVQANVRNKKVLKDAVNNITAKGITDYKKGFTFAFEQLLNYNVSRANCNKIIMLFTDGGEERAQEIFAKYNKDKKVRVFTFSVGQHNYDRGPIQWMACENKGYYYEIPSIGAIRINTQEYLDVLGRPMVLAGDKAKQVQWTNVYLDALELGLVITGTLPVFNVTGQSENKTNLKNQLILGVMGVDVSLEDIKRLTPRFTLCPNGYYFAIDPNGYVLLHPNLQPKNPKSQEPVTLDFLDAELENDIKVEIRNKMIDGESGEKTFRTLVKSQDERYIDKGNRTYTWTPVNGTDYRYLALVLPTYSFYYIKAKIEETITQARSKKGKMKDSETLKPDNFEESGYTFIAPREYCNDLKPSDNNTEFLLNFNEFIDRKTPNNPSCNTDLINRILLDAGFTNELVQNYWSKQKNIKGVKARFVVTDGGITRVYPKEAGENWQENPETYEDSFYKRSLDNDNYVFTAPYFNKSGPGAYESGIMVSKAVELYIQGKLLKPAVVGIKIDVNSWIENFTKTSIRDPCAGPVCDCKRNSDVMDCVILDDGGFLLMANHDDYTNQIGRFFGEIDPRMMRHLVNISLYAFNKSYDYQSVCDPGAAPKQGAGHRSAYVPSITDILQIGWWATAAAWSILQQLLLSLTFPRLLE", "T2 sequence (P54290 945-1091 partner limits assumed)": "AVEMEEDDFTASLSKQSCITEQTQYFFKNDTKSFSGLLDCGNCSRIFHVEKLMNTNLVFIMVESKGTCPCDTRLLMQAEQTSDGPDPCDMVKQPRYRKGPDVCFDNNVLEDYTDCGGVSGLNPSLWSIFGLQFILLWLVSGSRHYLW", "T2 sequence (P54287 whole entry partner)": "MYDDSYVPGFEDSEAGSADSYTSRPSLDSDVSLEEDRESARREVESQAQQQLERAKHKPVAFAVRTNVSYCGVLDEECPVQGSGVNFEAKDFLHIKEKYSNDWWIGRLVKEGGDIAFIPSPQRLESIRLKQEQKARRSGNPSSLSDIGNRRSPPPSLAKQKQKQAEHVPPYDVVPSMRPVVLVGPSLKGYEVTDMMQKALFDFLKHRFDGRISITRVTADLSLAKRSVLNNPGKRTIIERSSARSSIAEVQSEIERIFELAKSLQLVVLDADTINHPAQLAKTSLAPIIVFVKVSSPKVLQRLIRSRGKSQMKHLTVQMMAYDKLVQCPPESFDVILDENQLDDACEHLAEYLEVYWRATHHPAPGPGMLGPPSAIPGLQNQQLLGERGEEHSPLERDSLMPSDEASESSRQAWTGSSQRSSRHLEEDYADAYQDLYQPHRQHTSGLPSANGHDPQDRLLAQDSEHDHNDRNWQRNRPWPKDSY", "test": "Whole-cell voltage clamp, N-type Ca2+ current in SCG neurons", "type": "cell-based", "experimental": "(§1) Electrophysiological techniques were used to measure the effects of experimental compounds on voltage-gated Ca^2+, Na^+ and K^+ channels. […] Sodium and potassium channel currents were measured from acutely dissociated SCG neurons.\n(§2) Dissociation of the neurons from the ganglia was accomplished using a 30 to 45 minute treatment in 0.25% trypsin, similar to methods outlined in Higgins, et al. [see Higgins D., et al. “Tissue culture of mammalian autonomic neurons.” In Banker G. and Goslin K. (Eds), Culturing Nerve Cells, Cambridge, Mass., MIT Press (1991)].\n(§3) Ca^2+, Na^+ and K^+ channel currents in SCG neurons were measured using conventional single electrode whole-cell voltage-clamp techniques, outlined in Hamill, et al., (see Hamill O.P., et al. “Improved patch-clamp techniques for high resolution current recordings from cells and cell-free membrane patches”. Pflugers Arch. 1981;391:85-100) For Ca^2+ channel experiments, the external bathing solution contained tetraethylammonium chloride (100 mM), choline chloride (52 mM), NaCl (15 mM), HEPES (10 mM), glucose (5.6 mM), CaCl2 (2 mM), and MgCl2 (0.8 mM) pH 7.35 with KOH; with the internal pipette solution containing cesium methane sulfonate (140 mM), EGTA (10 mM), and HEPES (10 mM), supplemented with 5 mM Mg^2+ -ATP on the day of the experiment, pH 7.4 with CsOH. For Na^+ and K^+ channel experiments, the external bathing solution contained NaCl (150 mM), KCl (5 mM), MgCl2 (1.1 mM), CaCl2 (2.6 mM), Na-HEPES (10 mM), and glucose (10 mM), pH 7.4; with the internal pipette solution containing KCl (80 mM), K-gluconate (50 mM), HEPES (10 mM), and EGTA (10 mM), pH 7.4 with KOH. Experimental compounds were diluted into the external solution and applied to the soma of cells by local perfusion from large diameter (20-50 μm) glass micropipettes or from a U-tube applicator.\nAfter obtaining a whole-cell recording, Ca^2+ channels were elicited by stepping to test potentials between −40 and +20 mV for 120 msec from the holding potential of −90 mV to determine if the amplitude of the current and clamp control were adequate for evaluation of drug effects. Ca^2+ channel currents were evoked by stepping from a holding potentials between −65 mV and −−55 mV to a test potential of +20 mV for 150 msec every 40 seconds. The amplitude of the Ca^2+ channel currents were compared before and during drug application and drug effects expressed as percent inhibition of the amplitude of control currents."}, "[3]": {"test_system": "K+ channels in superior cervical ganglion (SCG) neurons", "test": "Whole-cell voltage clamp, K+ current in SCG neurons", "type": "cell-based, rat", "conditions": "10 μM", "experimental": "as §1, §2, §3\n(§4) For Na^+ and K^+ channel currents, following the determination of the I/V relationship for each cell in control solution, currents were evoked from a holding potential between −65 and −55 mV by stepping every 10 sec to a test potential of either 0 mV for Na^+ or +50 mV for K^+ current for a duration of 35 msec. Peak inward current was measured for Na^+ and sustained current for K^+ channel currents. […] Test compounds were applied until steady-state block was achieved. Data were expressed as percent inhibition of control amplitudes for Na^+ and K^+ channel currents."}, "[4]": {"test_system": "Na+ channels in superior cervical ganglion (SCG) neurons", "test": "Whole-cell voltage clamp, Na+ current in SCG neurons", "type": "cell-based, rat", "conditions": "10 μM", "experimental": "as §1, §2, §3, §4"}}, "data": [{"smiles": "C[C@H](NC(=O)N1CCCCCC1)C(=O)N[C@@H](Cc1ccc(OCc2ccccc2)cc1)C(=O)OC(C)(C)C", "note": "(relative stereo) [Example 7, [S-(R*,R*)]-2-{2-[(Azepane-1-carbonyl)-amino]-propionylamino}-3-(4-benzyloxy-phenyl)-propionic acid tert-butyl ester]", "values": [{"measurement": "Inhibition of Calcium Flux in IMR-32 Cells % Inhibition at 1 μM", "setting": "[1]", "value": 44, "unit": "%"}, {"measurement": "Inhibition of Calcium Flux in IMR-32 Cells % Inhibition at 10 μM", "setting": "[1]", "value": 96, "unit": "%"}, {"measurement": "IC50", "setting": "[1]", "value": 1500, "unit": "nM"}, {"measurement": "Inhibition of N-type Ca2+ Current, % Inhibition at 10 μM", "setting": "[2]; 10 μM", "value": 81, "unit": "%"}, {"measurement": "IC50", "setting": "[2]; read-out: Inhibition of N-type Ca2+ Current IC50", "value": 2300, "unit": "nM"}, {"measurement": "Inhibition of K+ Current, % Inhibition at 10 μM", "setting": "[3]", "value": 70, "unit": "%"}, {"measurement": "Inhibition of Na+ Current, % Inhibition at 10 μM", "setting": "[4]", "value": 52, "unit": "%"}]}, {"smiles": "CC(C)C[C@H](NC(=O)N1CCN(C)CC1)C(=O)N[C@@H](Cc1ccc(OCc2ccccc2)cc1)C(=O)OC(C)(C)C", "note": "(relative stereo) [Example 9, [S-(R*,R*)]-3-(4-Benzyloxy-phenyl)-2-{4-methyl-2-[(4-methyl-piperazine-1-carbonyl)-amino]-pentanoylamino}-propionic acid tert-butyl ester]", "values": [{"measurement": "Inhibition of Calcium Flux in IMR-32 Cells % Inhibition at 1 μM", "setting": "[1]", "value": 28, "unit": "%"}, {"measurement": "Inhibition of N-type Ca2+ Current, % Inhibition at 10 μM", "setting": "[2]; 10 μM", "value": 81, "unit": "%"}, {"measurement": "Inhibition of K+ Current, % Inhibition at 10 μM", "setting": "[3]", "value": 61, "unit": "%"}, {"measurement": "Inhibition of Na+ Current, % Inhibition at 10 μM", "setting": "[4]", "value": 44, "unit": "%"}]}, {"smiles": "CC(C)C[C@H](NS(=O)(=O)c1ccc([N+](=O)[O-])cc1)C(=O)N[C@@H](Cc1ccc(OCc2ccccc2)cc1)C(=O)OC(C)(C)C", "note": "(relative stereo) [Example 39, [S-(R*,R*)]-3-(4-Benzyloxy-phenyl)-2-[4-methyl-2-(4-nitro-benzenesulfonylamino)-pentanoylamino]-propionic acid tert-butyl ester]", "values": [{"measurement": "Inhibition of Calcium Flux in IMR-32 Cells % Inhibition at 1 μM", "setting": "[1]", "value": 61, "unit": "%"}, {"measurement": "Inhibition of Calcium Flux in IMR-32 Cells % Inhibition at 10 μM", "setting": "[1]", "value": 91, "unit": "%"}, {"measurement": "IC50", "setting": "[1]", "value": 520, "unit": "nM"}, {"measurement": "Inhibition of K+ Current, % Inhibition at 10 μM", "setting": "[3]", "value": 22, "unit": "%"}, {"measurement": "Inhibition of Na+ Current, % Inhibition at 10 μM", "setting": "[4]", "value": 28, "unit": "%"}]}, {"smiles": "CCCCNC(=S)N[C@@H](CC(C)C)C(=O)N[C@@H](Cc1ccc(OCc2ccccc2)cc1)C(=O)OC(C)(C)C", "note": "(relative stereo) [Example 49, [S-(R*,R*)]-3-(4-Benzyloxy-phenyl)-2-[2-(3-butyl-thioureido)-4-methyl-pentanoylamino]-propionic acid tert-butyl ester]", "values": [{"measurement": "Inhibition of Calcium Flux in IMR-32 Cells % Inhibition at 1 μM", "setting": "[1]", "value": 77, "unit": "%"}, {"measurement": "Inhibition of Calcium Flux in IMR-32 Cells % Inhibition at 10 μM", "setting": "[1]", "value": 99, "unit": "%"}, {"measurement": "IC50", "setting": "[1]", "value": 270, "unit": "nM"}, {"measurement": "Inhibition of N-type Ca2+ Current, % Inhibition at 10 μM", "setting": "[2]; 10 μM", "value": 45, "unit": "%"}, {"measurement": "Inhibition of K+ Current, % Inhibition at 10 μM", "setting": "[3]", "value": "−3", "unit": "%"}, {"measurement": "Inhibition of Na+ Current, % Inhibition at 10 μM", "setting": "[4]", "value": 6, "unit": "%"}]}, {"smiles": "CC(C)C[C@H](NC(=O)c1ccccc1)C(=O)N[C@@H](Cc1ccc(OCc2ccccc2)cc1)C(=O)OC(C)(C)C", "note": "(relative stereo) [Example 130, [S-(R*,R*)]-2-(2-Benzoylamino-4-methyl-pentanoylamino)-3-(4-benzyloxy-phenyl)-propionic acid tert-butyl ester]", "values": [{"measurement": "Inhibition of Calcium Flux in IMR-32 Cells % Inhibition at 10 μM", "setting": "[1]", "value": 78, "unit": "%"}, {"measurement": "Inhibition of N-type Ca2+ Current, % Inhibition at 10 μM", "setting": "[2]; 10 μM", "value": "−7", "unit": "%"}]}, {"smiles": "CC(C)C[C@H](NC(=O)N1CCCCCC1)C(=O)N[C@@H](Cc1ccc(OCc2ccccc2)cc1)C(=O)NCCc1ccco1", "note": "[Example 174, [S-(R*,R*)]-Azepane-1-carboxylic acid {1-[2-(4-benzyloxy-phenyl)-1-(2-furan-2-ylethylcarbamoyl)-ethylcarbamoyl]-3-methyl-butyl}-amide]", "values": [{"measurement": "IC50", "setting": "[1]", "value": 1400, "unit": "nM"}, {"measurement": "Inhibition of K+ Current, % Inhibition at 10 μM", "setting": "[3]", "value": 32, "unit": "%"}, {"measurement": "Inhibition of Na+ Current, % Inhibition at 10 μM", "setting": "[4]", "value": 14, "unit": "%"}]}, {"smiles": "CC(C)C[C@H](NC(=O)N1CCCCCC1)C(=O)N[C@@H](Cc1ccc(OCc2ccccc2)cc1)C(=O)N[C@H]1CCN(Cc2ccccc2)C1", "note": "[Example 194, Azepane-1-carboxylic acid {(S)-1-[(S)-2-(4-benzyloxy-phenyl)-1-[1-benzyl-(S)-pyrrolidin-3-ylcarbamoyl]-ethylcarbamoyl]-3-methyl-butyl}-amide]", "values": [{"measurement": "IC50", "setting": "[1]", "value": 450, "unit": "nM"}, {"measurement": "inhibition at 10 µM", "setting": "[2]; 10 μM", "value": 84, "unit": "%"}]}, {"smiles": "COc1ccc(N2CCN(C(=O)[C@H](Cc3ccc(OCc4ccccc4)cc3)NC(=O)[C@H](CC(C)C)NC(=O)N3CCCCCC3)CC2)cc1", "note": "[Example 264, [S-(R*,R*)]-Azepane-1-carboxylic acid (1-{1-(4-benzyloxy-benzyl)-2-[4-(4-methoxy-phenyl)-piperazin-1-yl]-2-oxo-ethylcarbamoyl}-3-methyl-butyl)-amide]", "values": [{"measurement": "IC50", "setting": "[1]", "value": 740, "unit": "nM"}]}, {"smiles": "CC(C)C[C@H](NC(=O)N1CCCCCC1)C(=O)N[C@@H](Cc1ccc(OCc2ccccc2)cc1)C(=O)N1CCC(Cc2ccccc2)CC1", "note": "[Example 265, [S-(R*,R*)]-Azepane-1-carboxylic acid {1-[1-(4-benzyloxy-benzyl)-2-(4-benzyl-piperidin-1-yl)-2-oxo-ethylcarbamoyl]-3-methyl-butyl}-amide]", "values": [{"measurement": "IC50", "setting": "[1]", "value": 1000, "unit": "nM"}]}, {"smiles": "CC(C)C[C@H](NC(=O)N1CCCCCC1)C(=O)N[C@@H](Cc1ccc(OCc2ccccc2)cc1)C(=O)NC(C)(C)CO", "note": "[Example 266, Azepane-1-carboxylic acid {(S)-1-[(S)-2-(4-benzyloxy-phenyl)-1-(2-hydroxy-1,1-dimethyl-ethylcarbamoyl)-ethylcarbamoyl]-3-methyl-butyl}-amide]", "values": [{"measurement": "IC50", "setting": "[1]", "value": 1800, "unit": "nM"}]}, {"smiles": "Cc1cc(NC(=O)[C@H](Cc2ccc(OCc3ccccc3)cc2)NC(=O)[C@H](CC(C)C)NC(=O)N2CCCCCC2)c(C)cc1O", "note": "[Example 267, [S-(R*,R*)]-Azepane-1-carboxylic acid {1-[2-(4-benzyloxy-phenyl)-1-(4-hydroxy-2,5-dimethyl-phenylcarbamoyl)-ethylcarbamoyl]-3-methyl-butyl}-amide]", "values": [{"measurement": "IC50", "setting": "[1]", "value": 4400, "unit": "nM"}]}, {"smiles": "CC(C)C[C@H](NC(=O)N1CCCCCC1)C(=O)N[C@@H](Cc1ccc(OCc2ccccc2)cc1)C(=O)NCCCN1CCCC1", "note": "[Example 268, [S-(R*,R*)]-Azepane-1-carboxylic acid {1-[2-(4-benzyloxy-phenyl)-1-(3-pyrrolidin-1-yl-propylcarbamoyl)-ethylcarbamoyl]-3-methyl-butyl}-amide]", "values": [{"measurement": "IC50", "setting": "[1]", "value": 2900, "unit": "nM"}]}, {"smiles": "CC(C)C[C@H](NC(=O)N1CCCCCC1)C(=O)N[C@@H](Cc1ccc(OCc2ccccc2)cc1)C(=O)Nc1cccc(O)c1", "note": "[Example 269, [S-(R*,R*)]-Azepane-1-carboxylic acid {1-[2-(4-benzyloxy-phenyl)-1-(3-hydroxy-phenylcarbamoyl)-ethylcarbamoyl]-3-methyl-butyl}-amide]", "values": [{"measurement": "IC50", "setting": "[1]", "value": 2800, "unit": "nM"}]}, {"smiles": "CC(C)C[C@H](NC(=O)N1CCCCCC1)C(=O)N[C@@H](Cc1ccc(OCc2ccccc2)cc1)C(=O)N1CCN(C(c2ccccc2)c2ccccc2)CC1", "note": "[Example 270, [S-(R*,R*)]-Azepane-1-carboxylic acid {1-[2-(4-benzhydryl-piperazin-1-yl)-1-(4-benzyloxy-benzyl)-2-oxo-ethylcarbamoyl]-3-methyl-butyl}-amide]", "values": [{"measurement": "IC50", "setting": "[1]", "value": 1200, "unit": "nM"}]}, {"smiles": "CC(C)C[C@H](NC(=O)N1CCCCCC1)C(=O)N[C@@H](Cc1ccc(OCc2ccccc2)cc1)C(=O)NC1CCN(Cc2ccccc2)CC1", "note": "[Example 271, [S-(R*,R*)]-Azepane-1-carboxylic acid {1-[2-(4-benzyloxy-phenyl)-1-(1-benzyl-piperidin-4-ylcarbamoyl)-ethylcarbamoyl]-3-methyl-butyl}-amide]", "values": [{"measurement": "inhibition at 1 µM", "setting": "[1]; IMR-32", "value": 70, "unit": "%"}, {"measurement": "IC50", "setting": "[1]", "value": 840, "unit": "nM"}]}]}
